According to ChEMBL document CHEMBL5543169, “Exploring Subsite Selectivity within Plasmodium vivax N-Myristoyltransferase Using Pyrazole-Derived Inhibitors” (J Med Chem, 2024):

Experiments:
[1] = Inhibition of Plasmodium vivax NMT
[2] = Inhibition of N-terminal 6His-tagged Plasmodium vivax NMT (27 to 410 residues) expressed in Escherichia coli Rosetta 2 (DE3) cells preincubated for 30 mins followed by myrCoA, PfARF and CPM addition by fluorescence based plate reader assay

IC50 [2] | SMILES | IC50 [1]
 | O=C(c1cccc(NCc2cc(-c3ccc(Cl)cc3)c[nH]c2=O)c1)N1CCOCC1 | 3400 nM
5070 nM | Cc1c(CCOc2ccc3ccccc3c2-c2ccnc(N3CCNCC3)c2)c(C(=O)NCC(N)=O)nn1C | 
80.2 nM | Cc1nn(C)c(C)c1CCOc1cccnc1-c1cccc(N2CCNCC2)c1 | 
1000 nM | Cc1c(CCOc2ccc3ccccc3c2-c2ccnc(N3CCNCC3)c2)c(C(=O)Nc2cccnc2)nn1C | 
